Data: patent US20260256794A1, “Oral Dynamine Formulations and Methods Therefor” (Ortho-Nutra, LLC, priority 2023, published 2026)
Several values for one entry are separate records, joined by “and”; a condition that tells them apart may be missing. Identical values can stand only once.

Key:
Type in all cases: in vivo, human
subjects [1] = experiment: VAS-Mood; parameters: VAS-Mood rating, Mean / VAS-Mood changes from baseline, Mean Difference ± SE / VAS-Mood area under the curve, Mean Difference ± SE / VAS-Mood area under the curve, Mean: scale not given here
Experimental: (§1) The inventors have discovered various compositions and methods of improving various indices of neurological and neuroenergetic functions by administering 100 mg (once daily) dosages of DYNAMINE™ (dosage between 1.0 and 1.4 mg/kg) as described in the following:
(§2) All neuroenergetic tests as listed below were performed and data were collected after 0 and 4 days of assigned supplements (with acute effects also measured at day 4 over 180 minutes):
(§3) All VAS Measurement (Energy, Sustained Energy, Mental Stamina, Ability to Focus, Ability to Concentrate, Motivation to Accomplish Difficult Tasks, Drive, Vigor, Level of Positive Outlook, Mood, Feelings of Well-Being, Tolerate Stress); Day 0: Two tests were completed. The average of both scores was computed and this value was used in all statistical analysis. Day 4 (0 minutes after ingesting dose #4): Two tests were completed. The average of both scores was computed and this value was used in all statistical analysis. Day 4 (60, 120, and 180 minutes after ingesting dose #4): One test was completed at each time point.
(§4) Neuroenergic parameters are inherently subjective, nevertheless significant in human behavior and well-being. To allow for a standardization among different subjects, the following experiments were performed using a visual analog scale using anchor statements (lowest possible/highest possible) in which subjects were asked to rate their subjective experience with respect to the specific neuroenergic parameters tested.
VAS-Mood: In this subjective test, subjects were asked to rate their personal level of energy on a VAS scale using the prompt of “My mood right now is . . . ” (with rating lowest possible to highest possible)”. Results were collected as noted above and Table 31 provides exemplary results for Day 0 versus Day 4 ratings, whereas Table 32 provides exemplary acute results measured at Day 4 over a duration of 180 minutes.

subjects [2] = experiment: VAS-Ability to focus; parameters: VAS-Ability to focus rating, Mean / VAS-Ability to focus changes from baseline, Mean Difference ± SE / VAS-Ability to focus area under the curve, Mean Difference ± SE / VAS-Ability to focus area under the curve, Mean: scale not given here
Experimental: as §1, §2, §3, §4
VAS-Ability to focus: In this subjective test, subjects were asked to rate their personal level of energy on a VAS scale using the prompt of “My ability to focus right now is . . . ” (with rating lowest possible to highest possible)”. Results were collected as noted above and Table 13 provides exemplary results for Day 0 versus Day 4 ratings, whereas Table 14 provides exemplary acute results measured at Day 4 over a duration of 180 minutes.

subjects [3] = experiment: VAS-Ability to tolerate stress; parameters: VAS-Ability to tolerate stress rating, Mean / VAS-Ability to tolerate stress changes from baseline, Mean Difference ± SE / VAS-Ability to tolerate stress area under the curve, Mean Difference ± SE / VAS-Ability to tolerate stress area under the curve, Mean: scale not given here
Experimental: as §1, §2, §3, §4
VAS-Ability to tolerate stress: In this subjective test, subjects were asked to rate their personal level of energy on a VAS scale using the prompt of “My ability to tolerate stress right now is . . . ” (with rating lowest possible to highest possible)”. Results were collected as noted above and Table 37 provides exemplary results for Day 0 versus Day 4 ratings, whereas Table 38 provides exemplary acute results measured at Day 4 over a duration of 180 minutes.

subjects [4] = experiment: Stroop-Accuracy
Experimental: as §1, §2
Stroop Color Matching Test (Total Score, Accuracy %, Average Score): Day 0: Two blocks of three tests were completed. Each block of three tests was separated by 10 minutes. The median of each block was taken and then those two scores were averaged. This value was used in all statistical analysis. Day 4: Three tests were completed at four time points: after 0, 60, 120, and 180 minutes of taking dose #4. The median of the three tests at each time point was used in all statistical analysis.
The Stroop Color and Word Test (SCWT, or Stroop test) is a neuropsychological test extensively used to assess the ability to inhibit cognitive interference that occurs when the processing of a specific stimulus feature impedes the simultaneous processing of a second stimulus attribute, well-known as the Stroop effect (see e.g., Front Psychol. 2017; 8:557). Here, subjects were required to read three different tables as fast as possible. Two of them represent the “congruous condition” in which participants are required to read names of colors (‘color-words’) printed in black ink (W) and name different color patches (C). However, in the third table, the color-word (CW) condition, color-words are printed in an inconsistent color ink (e.g., the word “red” is printed in green ink). In this incongruent condition, participants are required to name the color of the ink instead of reading the word. In other words, the participants are required to perform a less automated task (i.e., naming ink color) while inhibiting the interference arising from a more automated task (i.e., reading the word). This difficulty in inhibiting the more automated process is called the Stroop effect. The Stroop test is predominantly used to measure the ability to inhibit cognitive interference. However, some sources also report its application to measure other cognitive functions such as attention, processing speed, cognitive flexibility, and working memory.
Stroop-Accuracy: The results for this test were based on an accuracy score comparing performance between Day 0 and Day 4, with Day 4 including tests over a duration of 180 minutes. Results were collected as noted above and Table 43 provides exemplary results for Day 0 versus Day 4 ratings, whereas Table 44 provides exemplary acute results measured at Day 4 over a duration of 180 minutes.

[5] = 100 mg once daily, Day 4, 0-180 min
[6] = 100 mg once daily, Day 4, 0-180 min, vs Group A (placebo)
[7] = 100 mg once daily, Day 4, 0 min after dose #4
[8] = 100 mg once daily, Day 4, 60 min-0 min, vs Group A (placebo)
[9] = 100 mg once daily, Day 4, 60 min after dose #4
[10] = 100 mg once daily, Day 4, 120 min-0 min, vs Group A (placebo)
[11] = 100 mg once daily, Day 4, 120 min after dose #4
[12] = 100 mg once daily, Day 4, 180 min-0 min, vs Group A (placebo)
[13] = 100 mg once daily, Day 4, 180 min after dose #4

SMILES: COc1nc2c(c(=O)n1C)n(C)c(=O)n2C [methylliberine, 2-methoxy-1,7,9-trimethylpurine-6,8-dione]
- VAS-Mood area under the curve, Mean (subjects [1]; [5]): 1220
- VAS-Mood area under the curve, Mean Difference ± SE (subjects [1]; [6]): 37.4 ± 250.7
- VAS-Mood area under the curve, effect size d (subjects [1]; [6]): 0.12
- VAS-Mood rating, Mean (subjects [1]; [7]): 6.1
- VAS-Mood changes from baseline, Mean Difference ± SE (subjects [1]; [8]): 0.38 ± 0.18
- VAS-Mood changes from baseline, effect size d (subjects [1]; [8]): 0.43
- VAS-Mood rating, Mean (subjects [1]; [9]): 6.7
- VAS-Mood changes from baseline, Mean Difference ± SE (subjects [1]; [10]): 0.45 ± 0.27
- VAS-Mood changes from baseline, effect size d (subjects [1]; [10]): 0.41
- VAS-Mood rating, Mean (subjects [1]; [11]): 7.0
- VAS-Mood changes from baseline, Mean Difference ± SE (subjects [1]; [12]): 0.72 ± 0.30
- VAS-Mood changes from baseline, effect size d (subjects [1]; [12]): 0.65
- VAS-Mood rating, Mean (subjects [1]; [13]): 7.1
- VAS-Mood rating, Mean (subjects [1]; Day 0 (before supplementation)): 6.5
- VAS-Ability to focus area under the curve, Mean (subjects [2]; [5]): 1155
- VAS-Ability to focus area under the curve, Mean Difference ± SE (subjects [2]; [6]): 55.3 ± 40.9
- VAS-Ability to focus area under the curve, effect size d (subjects [2]; [6]): 0.17
- VAS-Ability to focus rating, Mean (subjects [2]; [7]): 6.0
- VAS-Ability to focus changes from baseline, Mean Difference ± SE (subjects [2]; [8]): 0.35 ± 0.30
- VAS-Ability to focus changes from baseline, effect size d (subjects [2]; [8]): 0.34
- VAS-Ability to focus rating, Mean (subjects [2]; [9]): 6.4
- VAS-Ability to focus changes from baseline, Mean Difference ± SE (subjects [2]; [10]): 0.20 ± 0.26
- VAS-Ability to focus changes from baseline, effect size d (subjects [2]; [10]): 0.20
- VAS-Ability to focus rating, Mean (subjects [2]; [11]): 6.5
- VAS-Ability to focus changes from baseline, Mean Difference ± SE (subjects [2]; [12]): 0.44 ± 0.24
- VAS-Ability to focus changes from baseline, effect size d (subjects [2]; [12]): 0.38
- VAS-Ability to focus rating, Mean (subjects [2]; [13]): 6.7
- VAS-Ability to focus rating, Mean (subjects [2]; Day 0 (before supplementation)): 5.9
- VAS-Ability to tolerate stress area under the curve, Mean (subjects [3]; [5]): 1075
- VAS-Ability to tolerate stress area under the curve, Mean Difference ± SE (subjects [3]; [6]): 45.5 ± 45.6
- VAS-Ability to tolerate stress area under the curve, effect size d (subjects [3]; [6]): −0.13
- VAS-Ability to tolerate stress rating, Mean (subjects [3]; [7]): 5.7
- VAS-Ability to tolerate stress changes from baseline, Mean Difference ± SE (subjects [3]; [8]): 0.17 ± 0.18
- VAS-Ability to tolerate stress changes from baseline, effect size d (subjects [3]; [8]): 0.21
- VAS-Ability to tolerate stress rating, Mean (subjects [3]; [9]): 6.2
- VAS-Ability to tolerate stress changes from baseline, Mean Difference ± SE (subjects [3]; [10]): 0.28 ± 1.42
- VAS-Ability to tolerate stress changes from baseline, effect size d (subjects [3]; [10]): 0.27
- VAS-Ability to tolerate stress rating, Mean (subjects [3]; [11]): 6.4
- VAS-Ability to tolerate stress changes from baseline, Mean Difference ± SE (subjects [3]; [12]): 0.67 ± 0.30
- VAS-Ability to tolerate stress changes from baseline, effect size d (subjects [3]; [12]): 0.52 and 0.54
- VAS-Ability to tolerate stress rating, Mean (subjects [3]; [13]): 6.4
- VAS-Ability to tolerate stress rating, Mean (subjects [3]; Day 0 (before supplementation)): 6.1
- Stroop accuracy, Mean (subjects [4]; [7]): 99.2%
- Stroop accuracy, Mean (subjects [4]; [9]): 99.1%
- Stroop accuracy, Mean (subjects [4]; [11]): 99.0%
- Stroop accuracy, Mean (subjects [4]; [13]): 98.9%
- Stroop accuracy, Mean (subjects [4]; Day 0 (before supplementation)): 99.2%
